Test results: ChEMBL document CHEMBL4507327 (2021)

How the values were obtained:
[1] = molecular target: Tyrosine-protein kinase Mer (Homo sapiens, UniProt Q12866); experiment: Mer(MERTLGF1) Takeda global kinase panel
[2] = molecular target: Serine/threonine-protein kinase Nek11 (Homo sapiens, UniProt Q8NG66); experiment: Nek11(NE11LGRI) Takeda global kinase panel
[3] = molecular target: Mitogen-activated protein kinase 1 (Homo sapiens, UniProt P28482); experiment: ERK2(MAP1LGY1) Takeda global kinase panel
Chain of Mitogen-activated protein kinase 1 (P28482 whole entry): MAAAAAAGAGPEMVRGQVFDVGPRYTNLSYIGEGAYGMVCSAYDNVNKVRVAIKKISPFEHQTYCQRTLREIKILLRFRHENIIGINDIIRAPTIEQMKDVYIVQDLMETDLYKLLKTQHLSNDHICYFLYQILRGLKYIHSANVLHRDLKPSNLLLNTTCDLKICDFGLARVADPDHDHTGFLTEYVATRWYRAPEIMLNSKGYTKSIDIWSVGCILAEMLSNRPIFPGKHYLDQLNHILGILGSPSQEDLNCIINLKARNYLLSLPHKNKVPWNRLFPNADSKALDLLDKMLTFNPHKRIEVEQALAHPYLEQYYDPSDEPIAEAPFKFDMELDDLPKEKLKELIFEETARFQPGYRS

[4] = molecular target: Serine/threonine-protein kinase Nek2 (Homo sapiens, UniProt P51955); experiment: Nek2(NEK2LHFA) Takeda global kinase panel
Rattus norvegicus = organism: Rattus norvegicus; experiment: Inhibition of Glutamate, NMDA, Phencyclidine at 10 µM in the Eurofins-Panlabs radioligand binding assay (Eurofins_assay_233000); type: protein-complex assay; details: Compound concentration 10.0 uM
[5] = molecular target: T1, Alpha-1A adrenergic receptor (Homo sapiens) (UniProt P35348); experiment: Inhibition of Adrenergic alpha1A at compound concentration of 10.0 uM in the Eurofins-Panlabs radioligand binding assay (Eurofins_assay_203110); parameters: ligand concentration 0.25 nM; details: Rattus norvegicus; Compound concentration 10.0 uM
T1 sequence (whole entry): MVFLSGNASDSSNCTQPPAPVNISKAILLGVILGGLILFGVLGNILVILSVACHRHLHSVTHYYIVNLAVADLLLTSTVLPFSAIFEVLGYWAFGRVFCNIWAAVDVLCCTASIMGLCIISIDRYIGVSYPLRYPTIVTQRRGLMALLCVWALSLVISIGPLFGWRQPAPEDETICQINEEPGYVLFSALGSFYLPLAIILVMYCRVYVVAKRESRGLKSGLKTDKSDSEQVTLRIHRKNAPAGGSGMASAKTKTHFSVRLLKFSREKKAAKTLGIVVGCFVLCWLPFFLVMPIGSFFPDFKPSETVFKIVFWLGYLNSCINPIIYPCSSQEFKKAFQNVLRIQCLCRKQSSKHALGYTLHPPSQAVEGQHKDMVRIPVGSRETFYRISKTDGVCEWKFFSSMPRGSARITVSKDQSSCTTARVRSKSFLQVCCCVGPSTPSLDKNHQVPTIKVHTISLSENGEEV

[6] = molecular target: Casein kinase I isoform alpha (Homo sapiens, UniProt P48729); experiment: CK1alpha(C1A1PHY1) Takeda global kinase panel
[7] = molecular target: Dual specificity testis-specific protein kinase 2 (Homo sapiens, UniProt Q96S53); experiment: TESK2(TES2LGRL) Takeda global kinase panel
TGF-beta receptor type-2 = TGF-beta receptor type-2 (Homo sapiens, UniProt P37173); experiment: TGFbetaR2(TGF2LGY1) Takeda global kinase panel
[8] = molecular target: Cyclin-dependent kinase 16 (Homo sapiens, UniProt Q00536); experiment: PCTAIRE1(CD16SGS1) Takeda global kinase panel
Chain of Cyclin-dependent kinase 16 (Q00536 whole entry): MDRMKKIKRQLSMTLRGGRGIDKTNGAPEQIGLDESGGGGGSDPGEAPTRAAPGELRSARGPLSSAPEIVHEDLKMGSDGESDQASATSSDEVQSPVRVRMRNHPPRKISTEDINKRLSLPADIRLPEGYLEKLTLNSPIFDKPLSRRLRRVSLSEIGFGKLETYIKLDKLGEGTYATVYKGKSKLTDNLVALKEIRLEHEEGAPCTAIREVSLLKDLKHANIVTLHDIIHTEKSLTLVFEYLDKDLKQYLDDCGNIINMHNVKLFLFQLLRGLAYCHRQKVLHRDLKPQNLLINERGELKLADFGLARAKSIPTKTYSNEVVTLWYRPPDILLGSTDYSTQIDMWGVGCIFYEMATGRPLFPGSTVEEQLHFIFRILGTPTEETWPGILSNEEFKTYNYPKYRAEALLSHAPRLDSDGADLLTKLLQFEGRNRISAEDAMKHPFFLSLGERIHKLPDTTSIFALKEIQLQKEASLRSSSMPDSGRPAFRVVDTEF

[9] = molecular target: Serine/threonine-protein kinase BRSK1 (Homo sapiens, UniProt Q8TDC3); experiment: BRSK1(BRS1LGA1) Takeda global kinase panel
[10] = molecular target: Beta-adrenergic receptor kinase 1 (Homo sapiens, UniProt P25098); experiment: BARK1 [GRK2(ADR1LGG5)] Takeda global kinase panel
[11] = molecular target: 5-hydroxytryptamine receptor 2B (Homo sapiens) (UniProt P41595); details: Compound concentration 10.0 uM
[12] = molecular target: Mitogen-activated protein kinase kinase kinase 7 (Homo sapiens, UniProt O43318); experiment: TAK1(M3K7CHY1) Takeda global kinase panel
[13] = molecular target: Beta-2 adrenergic receptor (Homo sapiens) (UniProt P07550); details: Compound concentration 10.0 uM
[14] = molecular target: Ribosomal protein S6 kinase alpha-6 (Homo sapiens, UniProt Q9UK32); experiment: RSK4(R6A6LGF1) Takeda global kinase panel
Chain of Ribosomal protein S6 kinase alpha-6 (Q9UK32 whole entry): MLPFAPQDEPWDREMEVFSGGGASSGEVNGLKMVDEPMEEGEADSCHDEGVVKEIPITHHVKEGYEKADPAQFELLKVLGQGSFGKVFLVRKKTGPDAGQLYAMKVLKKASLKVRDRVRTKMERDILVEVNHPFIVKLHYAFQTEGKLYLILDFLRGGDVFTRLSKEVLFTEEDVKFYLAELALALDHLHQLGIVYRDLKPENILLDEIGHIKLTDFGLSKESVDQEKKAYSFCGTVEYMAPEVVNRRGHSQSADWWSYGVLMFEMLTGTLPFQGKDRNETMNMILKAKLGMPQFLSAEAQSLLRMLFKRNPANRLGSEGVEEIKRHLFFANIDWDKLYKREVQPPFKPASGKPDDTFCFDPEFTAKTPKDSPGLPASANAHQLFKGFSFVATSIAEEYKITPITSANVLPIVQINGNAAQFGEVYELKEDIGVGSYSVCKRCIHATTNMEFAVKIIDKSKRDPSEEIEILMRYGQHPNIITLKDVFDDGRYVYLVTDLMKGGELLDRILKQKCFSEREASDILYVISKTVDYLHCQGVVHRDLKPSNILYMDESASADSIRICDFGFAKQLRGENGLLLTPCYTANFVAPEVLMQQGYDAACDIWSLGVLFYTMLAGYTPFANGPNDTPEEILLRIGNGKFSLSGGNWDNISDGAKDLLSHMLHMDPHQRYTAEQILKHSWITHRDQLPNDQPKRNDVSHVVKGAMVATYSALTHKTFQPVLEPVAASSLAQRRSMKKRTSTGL

[15] = molecular target: Mitogen-activated protein kinase 3 (Homo sapiens, UniProt P27361); experiment: ERK1(MAP3LGY1) Takeda global kinase panel
[16] = molecular target: Serine/threonine-protein kinase VRK2 (Homo sapiens, UniProt Q86Y07); experiment: VRK2(VRK2LGRI) Takeda global kinase panel
[17] = molecular target: Tyrosine-protein kinase Srms (Homo sapiens, UniProt Q9H3Y6); experiment: Srm(SRMSLGY1) Takeda global kinase panel
[18] = molecular target: Myosin light chain kinase family member 4 (Homo sapiens, UniProt Q86YV6); experiment: SgK085(SG85LGY1) Takeda global kinase panel
Chain of Myosin light chain kinase family member 4 (Q86YV6 whole entry): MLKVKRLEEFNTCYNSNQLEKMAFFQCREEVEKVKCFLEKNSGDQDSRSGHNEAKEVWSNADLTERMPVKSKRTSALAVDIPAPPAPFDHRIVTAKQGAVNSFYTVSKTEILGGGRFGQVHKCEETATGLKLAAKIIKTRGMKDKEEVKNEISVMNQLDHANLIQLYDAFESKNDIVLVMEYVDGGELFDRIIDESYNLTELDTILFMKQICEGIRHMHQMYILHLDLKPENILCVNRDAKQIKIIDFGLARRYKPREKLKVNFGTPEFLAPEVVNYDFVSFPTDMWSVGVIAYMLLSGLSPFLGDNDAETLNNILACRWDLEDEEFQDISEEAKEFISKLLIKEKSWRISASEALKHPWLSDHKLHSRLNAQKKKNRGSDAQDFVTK

Ephrin type-B receptor 1 = Ephrin type-B receptor 1 (Homo sapiens, UniProt P54762); experiment: EphB1(EPB1LGY1) Takeda global kinase panel
[19] = molecular target: Dual specificity tyrosine-phosphorylation-regulated kinase 4 (Homo sapiens, UniProt Q9NR20); experiment: DYRK4(DYR4LHY1) Takeda global kinase panel
Chain of Dual specificity tyrosine-phosphorylation-regulated kinase 4 (Q9NR20 whole entry): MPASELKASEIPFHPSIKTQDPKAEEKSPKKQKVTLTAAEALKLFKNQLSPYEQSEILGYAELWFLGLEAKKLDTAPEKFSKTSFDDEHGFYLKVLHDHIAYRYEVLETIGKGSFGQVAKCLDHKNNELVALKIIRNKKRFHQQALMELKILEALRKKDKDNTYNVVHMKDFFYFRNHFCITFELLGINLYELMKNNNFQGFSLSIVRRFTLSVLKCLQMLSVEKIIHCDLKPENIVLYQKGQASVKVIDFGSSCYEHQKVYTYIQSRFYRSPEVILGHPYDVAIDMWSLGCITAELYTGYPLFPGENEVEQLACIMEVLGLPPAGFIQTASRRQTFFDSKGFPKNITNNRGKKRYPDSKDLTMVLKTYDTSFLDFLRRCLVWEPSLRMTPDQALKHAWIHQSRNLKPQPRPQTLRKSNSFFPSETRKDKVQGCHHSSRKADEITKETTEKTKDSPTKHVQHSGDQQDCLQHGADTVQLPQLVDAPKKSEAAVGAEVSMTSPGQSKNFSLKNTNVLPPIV

[20] = molecular target: ATP-sensitive inward rectifier potassium channel 11 (Cricetulus griseus) (UniProt A0A3L7HHE1); experiment: Inhibition of Potassium Channel [KATP] at 10 µM in the Eurofins-Panlabs radioligand binding assay (Eurofins_assay_265600); details: Cricetinae; Compound concentration 10.0 uM
[21] = molecular target: Dual specificity protein kinase CLK3 (Homo sapiens, UniProt P49761); experiment: CLK3(CLK3LGY1) Takeda global kinase panel
[22] = molecular target: Serine/threonine-protein kinase Chk1 (Homo sapiens, UniProt O14757); experiment: CHK1(CHE1CGP1) Takeda global kinase panel
[23] = molecular target: T2, Muscarinic acetylcholine receptor M2 (Homo sapiens) (UniProt P08172); details: Compound concentration 10.0 uM
T2 sequence (whole entry): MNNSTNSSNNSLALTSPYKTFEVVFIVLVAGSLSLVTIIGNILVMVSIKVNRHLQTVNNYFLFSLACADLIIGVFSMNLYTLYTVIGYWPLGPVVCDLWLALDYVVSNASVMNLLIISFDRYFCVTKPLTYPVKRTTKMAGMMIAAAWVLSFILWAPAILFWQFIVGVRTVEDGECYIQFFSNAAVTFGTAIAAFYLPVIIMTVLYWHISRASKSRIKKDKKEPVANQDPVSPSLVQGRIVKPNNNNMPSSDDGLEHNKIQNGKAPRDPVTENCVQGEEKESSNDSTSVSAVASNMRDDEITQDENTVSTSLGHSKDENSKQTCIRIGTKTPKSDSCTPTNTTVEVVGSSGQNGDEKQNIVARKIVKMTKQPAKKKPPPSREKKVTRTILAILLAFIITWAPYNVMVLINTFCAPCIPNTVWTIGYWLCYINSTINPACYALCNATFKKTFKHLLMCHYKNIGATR

[24] = molecular target: Cyclin-dependent kinase 1 (Homo sapiens, UniProt P06493); experiment: CDC2 [CDK1(CDK1CGS1)] Takeda global kinase panel
[25] = molecular target: Mitogen-activated protein kinase kinase kinase 5 (Homo sapiens, UniProt Q99683); experiment: ASK [MAP3K5(M3K5LGA1)] Takeda global kinase panel
Chain of Mitogen-activated protein kinase kinase kinase 5 (Q99683 whole entry): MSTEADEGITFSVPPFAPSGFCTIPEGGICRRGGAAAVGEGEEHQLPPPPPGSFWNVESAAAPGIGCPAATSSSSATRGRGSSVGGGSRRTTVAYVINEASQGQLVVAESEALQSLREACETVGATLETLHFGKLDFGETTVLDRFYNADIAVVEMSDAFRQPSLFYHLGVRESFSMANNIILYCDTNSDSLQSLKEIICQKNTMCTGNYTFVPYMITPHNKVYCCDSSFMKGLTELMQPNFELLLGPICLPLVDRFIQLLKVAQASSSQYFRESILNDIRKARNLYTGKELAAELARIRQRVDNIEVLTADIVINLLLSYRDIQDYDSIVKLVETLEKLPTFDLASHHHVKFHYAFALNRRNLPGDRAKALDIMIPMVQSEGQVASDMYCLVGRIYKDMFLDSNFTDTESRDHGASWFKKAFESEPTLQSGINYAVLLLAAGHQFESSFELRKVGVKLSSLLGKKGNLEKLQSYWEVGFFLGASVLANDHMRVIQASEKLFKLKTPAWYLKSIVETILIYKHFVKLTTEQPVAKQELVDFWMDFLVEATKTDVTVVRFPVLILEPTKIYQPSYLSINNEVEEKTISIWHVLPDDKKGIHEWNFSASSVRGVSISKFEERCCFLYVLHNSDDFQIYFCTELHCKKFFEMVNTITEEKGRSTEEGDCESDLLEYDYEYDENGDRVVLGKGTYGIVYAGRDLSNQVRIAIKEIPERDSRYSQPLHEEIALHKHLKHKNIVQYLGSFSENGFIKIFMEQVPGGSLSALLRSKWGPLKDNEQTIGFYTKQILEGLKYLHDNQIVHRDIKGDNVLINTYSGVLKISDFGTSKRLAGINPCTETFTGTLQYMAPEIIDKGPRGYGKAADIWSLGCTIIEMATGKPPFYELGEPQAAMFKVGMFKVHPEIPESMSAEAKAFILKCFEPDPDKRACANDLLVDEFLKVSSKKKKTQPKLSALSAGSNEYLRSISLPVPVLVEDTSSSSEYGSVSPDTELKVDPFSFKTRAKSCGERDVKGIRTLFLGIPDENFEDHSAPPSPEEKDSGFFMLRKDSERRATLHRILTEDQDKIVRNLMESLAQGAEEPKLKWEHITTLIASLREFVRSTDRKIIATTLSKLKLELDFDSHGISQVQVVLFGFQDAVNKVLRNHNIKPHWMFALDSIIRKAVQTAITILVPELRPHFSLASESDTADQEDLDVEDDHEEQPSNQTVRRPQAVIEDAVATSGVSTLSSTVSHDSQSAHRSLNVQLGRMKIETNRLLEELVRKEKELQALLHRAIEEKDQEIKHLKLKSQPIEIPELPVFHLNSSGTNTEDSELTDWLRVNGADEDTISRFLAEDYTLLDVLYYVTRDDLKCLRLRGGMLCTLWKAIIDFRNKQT

[26] = molecular target: Tyrosine-protein kinase ITK/TSK (Homo sapiens, UniProt Q08881); experiment: ITK(ITK1CGF1) Takeda global kinase panel
[27] = molecular target: Serine/threonine-protein kinase SIK2 (Homo sapiens, UniProt Q9H0K1); experiment: QIK(SIK2LGY1) Takeda global kinase panel
[28] = molecular target: cAMP-dependent protein kinase catalytic subunit PRKX (Homo sapiens, UniProt P51817); experiment: PRKX(PRKXLGH5) Takeda global kinase panel

Chain of Tyrosine-protein kinase Mer (Q12866 whole entry): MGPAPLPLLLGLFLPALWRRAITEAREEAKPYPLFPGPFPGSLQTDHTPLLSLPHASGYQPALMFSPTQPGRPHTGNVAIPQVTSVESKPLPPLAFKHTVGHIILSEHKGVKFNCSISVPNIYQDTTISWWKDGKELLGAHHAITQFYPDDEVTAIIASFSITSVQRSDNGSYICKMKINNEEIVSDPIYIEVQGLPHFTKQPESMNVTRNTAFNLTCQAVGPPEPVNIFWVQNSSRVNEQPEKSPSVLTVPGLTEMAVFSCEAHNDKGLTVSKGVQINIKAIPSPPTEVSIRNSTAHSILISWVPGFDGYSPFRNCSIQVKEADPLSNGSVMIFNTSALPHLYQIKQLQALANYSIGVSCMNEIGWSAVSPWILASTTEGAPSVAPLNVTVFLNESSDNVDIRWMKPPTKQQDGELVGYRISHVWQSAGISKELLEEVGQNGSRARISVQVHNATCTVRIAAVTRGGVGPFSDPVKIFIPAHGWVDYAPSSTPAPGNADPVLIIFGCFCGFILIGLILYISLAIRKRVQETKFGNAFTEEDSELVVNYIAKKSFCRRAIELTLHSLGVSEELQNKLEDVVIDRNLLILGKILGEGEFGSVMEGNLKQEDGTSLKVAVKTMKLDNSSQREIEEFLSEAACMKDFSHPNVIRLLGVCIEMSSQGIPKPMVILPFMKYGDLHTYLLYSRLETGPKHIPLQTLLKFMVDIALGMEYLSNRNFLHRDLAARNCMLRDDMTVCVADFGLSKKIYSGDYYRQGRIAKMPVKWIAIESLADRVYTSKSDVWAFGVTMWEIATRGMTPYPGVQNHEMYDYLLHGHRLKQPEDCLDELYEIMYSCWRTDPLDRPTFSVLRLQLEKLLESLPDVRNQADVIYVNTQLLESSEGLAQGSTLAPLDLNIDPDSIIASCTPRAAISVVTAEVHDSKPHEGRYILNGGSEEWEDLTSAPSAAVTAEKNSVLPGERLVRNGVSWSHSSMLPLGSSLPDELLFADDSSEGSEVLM

SMILES | IC50 [1] [nM] | IC50 [2] [nM] | IC50 [3] [nM] | IC50 [4] [nM] | inhibition (Rattus norvegicus) [%] | inhibition [5] [%] | IC50 [6] [nM] | IC50 [7] [nM] | IC50 (TGF-beta receptor type-2) [nM] | IC50 [8] [nM] | IC50 [9] [nM] | IC50 [10] [nM] | inhibition [11] [%] | IC50 [12] [nM] | inhibition [13] [%] | IC50 [14] [nM] | IC50 [15] [nM] | IC50 [16] [nM] | IC50 [17] [nM] | IC50 [18] [nM] | also measured
CN1C(=O)[C@@H](N2CCc3cn(Cc4ccccc4)nc3C2=O)COc2ccccc21 [TP-030-1] | 1000 | 1000 | 1000 | 1000 | -8 | -1 | 1000 | 1000 | 1000 | 1000 | 1000 | 1000 | 6 | 1000 | -4 | 1000 | 1000 | 1000 | 1000 | 1000 | IC50 (Ephrin type-B receptor 1): 1000 nM; IC50 [19]: 1000 nM; inhibition [20]: 6%; IC50 [21]: 1000 nM; IC50 [22]: 1000 nM; inhibition [23]: -4%; IC50 [24]: 1000 nM; IC50 [25]: 1000 nM; IC50 [26]: 1000 nM; IC50 [27]: 1000 nM; IC50 [28]: 1000 nM
CN1C(=O)[C@@H](N2CCc3cn(CC4CCS(=O)(=O)CC4)nc3C2=O)COc2ccccc21 [TP-030n] | 1000 | 1000 | 1000 | 1000 | -9 | 1 | 1000 | 1000 | 1000 | 1000 | 1000 | 1000 | -2 | 1000 | 4 | 1000 | 1000 | 1000 | 1000 | 1000 | IC50 (Ephrin type-B receptor 1): 1000 nM; IC50 [19]: 1000 nM; inhibition [20]: 5%; IC50 [21]: 1000 nM; IC50 [22]: 1000 nM; inhibition [23]: 9%; IC50 [24]: 1000 nM; IC50 [25]: 1000 nM; IC50 [26]: 1000 nM; IC50 [27]: 1000 nM; IC50 [28]: 1000 nM
